This test deals with MV-4-11 cells. Briefly: Gene expression microarray analysis (Affymetrix PrimeView) and GSEA. It is filed as cell-based, human. The arrangement: RFU PODN (11730768_x_at) / Fold change /veh PODN (11730768_x_at) / RFU LINC00158 (11744669_a_at) / Fold change /veh LINC00158 (11744669_a_at) / RFU DUSP10 (11751237_a_at) / Fold change /veh DUSP10 (11751237_a_at) / RFU ID3 (11757404_x_at) / Fold change /veh ID3 (11757404_x_at) / RFU PLEKHG5 (11737974_s_at) / Fold change /veh PLEKHG5 (11737974_s_at) / RFU LRRC4B (11730491_at) / Fold change /veh LRRC4B (11730491_at) / RFU GIMAP4 (11747438_a_at) / Fold change /veh GIMAP4 (11747438_a_at) / RFU KRT8 (11758183_x_at) / Fold change /veh KRT8 (11758183_x_at) / RFU CNN1 (11734310_a_at) / Fold change /veh CNN1 (11734310_a_at) / RFU VPS37D (11726825_at) / Fold change /veh VPS37D (11726825_at) / RFU C10orf10 (11716522_x_at) / Fold change /veh C10orf10 (11716522_x_at) / RFU KIR2DL2 /// KIR2DL4 /// KIR2DL5A /// KIR2DL5B /// KIR2DS1 /// KIR2DS2 /// KIR2DS3 /// KIR2DS4 /// KIR3DL3 /// KIR3DL3 /// KIR3DS1 (11738374_at) / Fold change /veh KIR2DL2 /// KIR2DL4 /// KIR2DL5A /// KIR2DL5B /// KIR2DS1 /// KIR2DS2 /// KIR2DS3 /// KIR2DS4 /// KIR3DL3 /// KIR3DL3 /// KIR3DS1 (11738374_at) / RFU C1QL1 (11718748_at) / Fold change /veh C1QL1 (11718748_at) / RFU TMPRSS4 (11747572_a_at) / Fold change /veh TMPRSS4 (11747572_a_at) / RFU HAMP (11756126_x_at) / Fold change /veh HAMP (11756126_x_at) / RFU RNFT2 (11725882_a_at) / Fold change /veh RNFT2 (11725882_a_at) / RFU NR4A2 (11747474_a_at) / Fold change /veh NR4A2 (11747474_a_at) / RFU ABCC12 (11746883_a_at) / Fold change /veh ABCC12 (11746883_a_at) / RFU TMEM136 (11760407_x_at) / Fold change /veh TMEM136 (11760407_x_at) / RFU CLDN22 /// WWC2 (11732394_at) / Fold change /veh CLDN22 /// WWC2 (11732394_at) / RFU HLA-DPB1 (11760878_x_at) / Fold change /veh HLA-DPB1 (11760878_x_at) / RFU SPINT1 (11716480_a_at) / Fold change /veh SPINT1 (11716480_a_at) / RFU GAP43 (11754022_s_at) / Fold change /veh GAP43 (11754022_s_at) / RFU A4GNT (11735810_at) / Fold change /veh A4GNT (11735810_at) / RFU PRB3 (11715151_x_at) / Fold change /veh PRB3 (11715151_x_at) / RFU TUBB4B (11761932_at) / Fold change /veh TUBB4B (11761932_at) / RFU CAPN14 (11732068_a_at) / Fold change /veh CAPN14 (11732068_a_at) / RFU TMCC2 (11721928_a_at) / Fold change /veh TMCC2 (11721928_a_at) / RFU IRGQ (11745062_a_at) / Fold change /veh IRGQ (11745062_a_at) / RFU FAM174B (11720279_a_at) / Fold change /veh FAM174B (11720279_a_at) / RFU TMPRSS4 (11748680_a_at) / Fold change /veh TMPRSS4 (11748680_a_at) / RFU FAM212B (11763350_a_at) / Fold change /veh FAM212B (11763350_a_at) / RFU PLEKHG5 (11743358_a_at) / Fold change /veh PLEKHG5 (11743358_a_at) / RFU ZSCAN30 (11745921_a_at) / Fold change /veh ZSCAN30 (11745921_a_at) / RFU CMKLR1 (11741424_a_at) / Fold change /veh CMKLR1 (11741424_a_at) / RFU LOC101060620 /// MAPK8IP1 (11723275_at) / Fold change /veh LOC101060620 /// MAPK8IP1 (11723275_at) / RFU SPTSSB (11747773_x_at) / Fold change /veh SPTSSB (11747773_x_at) / RFU PRSS12 (11739890_at) / Fold change /veh PRSS12 (11739890_at) / RFU BIN1 (11741810_x_at) / Fold change /veh BIN1 (11741810_x_at) / RFU WNT11 (11732464_a_at) / Fold change /veh WNT11 (11732464_a_at) / RFU C10orf10 (11716521_a_at) / Fold change /veh C10orf10 (11716521_a_at) / RFU C5orf56 (11738089_at) / Fold change /veh C5orf56 (11738089_at) / RFU CYB561 (11721691_x_at) / Fold change /veh CYB561 (11721691_x_at) / RFU ANKRD19P (11752326_a_at) / Fold change /veh ANKRD19P (11752326_a_at) / RFU OR2T12 /// OR2T33 /// OR2T8 (11738714_s_at) / Fold change /veh OR2T12 /// OR2T33 /// OR2T8 (11738714_s_at) / RFU VCAN (11748164_a_at) / Fold change /veh VCAN (11748164_a_at) / RFU JSRP1 (11732532_at) / Fold change /veh JSRP1 (11732532_at) / RFU KRTAP10-11 (11738290_x_at) / Fold change /veh KRTAP10-11 (11738290_x_at) / RFU MYO3A (11730013_a_at) / Fold change /veh MYO3A (11730013_a_at) / RFU EBF3 (11725865_a_at) / Fold change /veh EBF3 (11725865_a_at) / RFU CAMK2N1 (11719241_x_at) / Fold change /veh CAMK2N1 (11719241_x_at) / RFU C5orf56 (11738088_a_at) / Fold change /veh C5orf56 (11738088_a_at) / RFU OLFML3 (11715873_a_at) / Fold change /veh OLFML3 (11715873_a_at) / RFU LOC100653217 /// NTM (11731650_a_at) / Fold change /veh LOC100653217 /// NTM (11731650_a_at) / RFU MAPK11 (11762145_a_at) / Fold change /veh MAPK11 (11762145_a_at) / RFU FIZ1 (11724087_x_at) / Fold change /veh FIZ1 (11724087_x_at) / RFU OASL (11726364_x_at) / Fold change /veh OASL (11726364_x_at) / RFU SOX15 (11748057_x_at) / Fold change /veh SOX15 (11748057_x_at) / RFU CD79A (11719716_a_at) / Fold change /veh CD79A (11719716_a_at) / RFU HIST1H1D (11736915_at) / Fold change /veh HIST1H1D (11736915_at) / RFU CASKIN2 (11723855_a_at) / Fold change /veh CASKIN2 (11723855_a_at) / RFU LOC730098 (11760151_x_at) / Fold change /veh LOC730098 (11760151_x_at) / RFU OR4N2 (11742367_at) / Fold change /veh OR4N2 (11742367_at) / RFU PRRT2 (11749266_a_at) / Fold change /veh PRRT2 (11749266_a_at) / RFU SNX32 (11753110_a_at) / Fold change /veh SNX32 (11753110_a_at) / RFU CDHR5 (11726645_a_at) / Fold change /veh CDHR5 (11726645_a_at) / RFU RCAN1 (11760418_a_at) / Fold change /veh RCAN1 (11760418_a_at) / RFU FAM167A (11723789_a_at) / Fold change /veh FAM167A (11723789_a_at) / RFU FAM26E (11764081_at) / Fold change /veh FAM26E (11764081_at) / RFU ISYNA1 (11749810_s_at) / Fold change /veh ISYNA1 (11749810_s_at) / RFU ACY1 (11761880_at) / Fold change /veh ACY1 (11761880_at) / RFU 11764098_at / Fold change /veh 11764098_at / RFU SAMD14 (11745864_x_at) / Fold change /veh SAMD14 (11745864_x_at) / RFU NPB (11741838_a_at) / Fold change /veh NPB (11741838_a_at) / RFU TMPRSS6 (11731388_a_at) / Fold change /veh TMPRSS6 (11731388_a_at) / RFU KRTAP10-2 (11738614_at) / Fold change /veh KRTAP10-2 (11738614_at) / RFU ARHGAP8 /// PRR5-ARHGAP8 (11727945_x_at) / Fold change /veh ARHGAP8 /// PRR5-ARHGAP8 (11727945_x_at) / RFU KRTAP5-7 /// NADSYN1 (11734609_at) / Fold change /veh KRTAP5-7 /// NADSYN1 (11734609_at) / RFU RASL12 (11751679_a_at) / Fold change /veh RASL12 (11751679_a_at) / RFU CDKN2B (11736163_a_at) / Fold change /veh CDKN2B (11736163_a_at) / RFU PRF1 (11729649_at) / Fold change /veh PRF1 (11729649_at) / RFU, ZNF638 /// ZNF638-IT1 / Fold change vs veh, ZNF638 /// ZNF638-IT1 / RFU, PANK3 / Fold change vs veh, PANK3 / RFU, SH3YL1 / Fold change vs veh, SH3YL1 / RFU, ZEB2 / Fold change vs veh, ZEB2 / RFU, NRIP1 / Fold change vs veh, NRIP1 / RFU, PTTG1IP / Fold change vs veh, PTTG1IP / RFU, CAPN2 / Fold change vs veh, CAPN2 / RFU, MED14 / Fold change vs veh, MED14 / RFU, SNORA58 / Fold change vs veh, SNORA58 / RFU, C1orf63 / Fold change vs veh, C1orf63 / RFU, LRRFIP1 / Fold change vs veh, LRRFIP1 / RFU, NDUFAF7 / Fold change vs veh, NDUFAF7 / RFU, SLC12A2 / Fold change vs veh, SLC12A2 / RFU, IBTK / Fold change vs veh, IBTK / RFU, ESF1 / Fold change vs veh, ESF1 / Fold change vs veh, TMEM50B / RFU, TAOK1 / Fold change vs veh, TAOK1 / RFU, ACBD3 / Fold change vs veh, ACBD3 / RFU, TMA16 / Fold change vs veh, TMA16 / RFU, RWDD3 / Fold change vs veh, RWDD3 / RFU, BCAT1 / Fold change vs veh, BCAT1 / RFU, EDEM3 / Fold change vs veh, EDEM3 / RFU, TMEM33 / Fold change vs veh, TMEM33 / RFU, WDR75 / Fold change vs veh, WDR75 / RFU, AHCTF1 / Fold change vs veh, AHCTF1 / RFU, TFRC / Fold change vs veh, TFRC / RFU, ZDHHC17 / Fold change vs veh, ZDHHC17 / RFU, NOM1 / Fold change vs veh, NOM1 / RFU, ARL8B / Fold change vs veh, ARL8B / RFU, ZBTB11 / Fold change vs veh, ZBTB11 / RFU, TAMM41 / Fold change vs veh, TAMM41 / RFU, KIAA1704 /// LOC100996395 / Fold change vs veh, KIAA1704 /// LOC100996395 / RFU, ING1 / Fold change vs veh, ING1 / RFU, TRMT61B / Fold change vs veh, TRMT61B / RFU, FUBP3 / Fold change vs veh, FUBP3 / RFU, TP53 / Fold change vs veh, TP53 / RFU, TNKS2 / Fold change vs veh, TNKS2 / RFU, ZFP14 / Fold change vs veh, ZFP14 / RFU, ACTR2 / Fold change vs veh, ACTR2 / RFU, PPP3R1 / Fold change vs veh, PPP3R1 / RFU, PIK3R1 / Fold change vs veh, PIK3R1 / RFU, HNRNPA1 / Fold change vs veh, HNRNPA1 / RFU, RNF170 / Fold change vs veh, RNF170 / RFU, ZNF28 / Fold change vs veh, ZNF28 / RFU, RNGTT / Fold change vs veh, RNGTT / RFU, OGT / Fold change vs veh, OGT / RFU, BRD1 / Fold change vs veh, BRD1 / RFU, MARS / Fold change vs veh, MARS / RFU, ZNF655 / Fold change vs veh, ZNF655 / RFU, FAHD1 / Fold change vs veh, FAHD1 / RFU, BDP1 / Fold change vs veh, BDP1 / RFU, LRRCC1 / Fold change vs veh, LRRCC1 / RFU, ARID1A / Fold change vs veh, ARID1A / RFU, ZNF146 / Fold change vs veh, ZNF146 / RFU, ZNF330 / Fold change vs veh, ZNF330 / RFU, GPN3 / Fold change vs veh, GPN3 / RFU, C9orf123 / Fold change vs veh, C9orf123 / RFU, N4BP2L2 / Fold change vs veh, N4BP2L2 / RFU, ARFIP1 / Fold change vs veh, ARFIP1 / RFU, FAM179B / Fold change vs veh, FAM179B / RFU, BCL10 / Fold change vs veh, BCL10 / RFU, UHRF1BP1L / Fold change vs veh, UHRF1BP1L / RFU, BET1 / Fold change vs veh, BET1 / RFU, CNOT2 / Fold change vs veh, CNOT2 / RFU, ZNF268 / Fold change vs veh, ZNF268 / Fold change vs veh, ZNF507 / RFU, DGCR2 / Fold change vs veh, DGCR2 / RFU, WDSUB1 / Fold change vs veh, WDSUB1 / Fold change vs veh, HSP90B1 /// MIR3652 / RFU, ADSS / Fold change vs veh, ADSS / RFU, GK / Fold change vs veh, GK / RFU, ZNF148 / Fold change vs veh, ZNF148 / RFU, TAF9 / Fold change vs veh, TAF9 / RFU, SLC1A5 / Fold change vs veh, SLC1A5 / RFU, SLMO2 / Fold change vs veh, SLMO2 / RFU, ABCC4 / Fold change vs veh, ABCC4 / RFU, LOC101060439 /// RAP1B / Fold change vs veh, LOC101060439 /// RAP1B / RFU, RFX7 / Fold change vs veh, RFX7 / RFU, GTPBP10 / Fold change vs veh, GTPBP10 / RFU, CNEP1R1 / Fold change vs veh, CNEP1R1 / RFU, BIVM-ERCC5 /// ERCC5 / Fold change vs veh, BIVM-ERCC5 /// ERCC5 / RFU, ILF3 / Fold change vs veh, ILF3 / RFU 11762660_at / Fold change /veh 11762660_at / RFU VCAN (11757783_s_at) / Fold change /veh VCAN (11757783_s_at) / RFU DDX43 (11728927_at) / Fold change /veh DDX43 (11728927_at) / RFU KRT8 (11758188_x_at) / Fold change /veh KRT8 (11758188_x_at) / RFU NKD1 (11759106_at) / Fold change /veh NKD1 (11759106_at) / RFU SRD5A1 (11742802_a_at) / Fold change /veh SRD5A1 (11742802_a_at) / RFU TPSAB1 /// TPSB2 (11721975_s_at) / Fold change /veh TPSAB1 /// TPSB2 (11721975_s_at) / RFU GSTM3 (11746129_a_at) / Fold change /veh GSTM3 (11746129_a_at) / RFU IL23R (11737362_x_at) / Fold change /veh IL23R (11737362_x_at) / RFU TMEM51 (11727254_a_at) / Fold change /veh TMEM51 (11727254_a_at) / RFU PIWIL2 (11732686_x_at) / Fold change /veh PIWIL2 (11732686_x_at) / RFU ORM1 (11744905_x_at) / Fold change /veh ORM1 (11744905_x_at) / RFU CCDC152 (11743942_at) / Fold change /veh CCDC152 (11743942_at) / RFU ECM1 (11717891_a_at) / Fold change /veh ECM1 (11717891_a_at) / RFU IL23R (11748794_a_at) / Fold change /veh IL23R (11748794_a_at) / RFU TNFAIP8L3 (11732012_x_at) / Fold change /veh TNFAIP8L3 (11732012_x_at) / RFU MBOAT4 (11741988_at) / Fold change /veh MBOAT4 (11741988_at) / RFU 11764193_at / Fold change /veh 11764193_at / RFU TMEM53 (11763286_at) / Fold change /veh TMEM53 (11763286_at) / RFU MAGEB2 (11727129_at) / Fold change /veh MAGEB2 (11727129_at) / RFU TMEM200A (11744735_a_at) / Fold change /veh TMEM200A (11744735_a_at) / RFU CCDC152 (11751479_a_at) / Fold change /veh CCDC152 (11751479_a_at) / RFU FAM211A (11726209_a_at) / Fold change /veh FAM211A (11726209_a_at) / RFU RGS16 (11746705_a_at) / Fold change /veh RGS16 (11746705_a_at) / RFU VCAN (11755009_s_at) / Fold change /veh VCAN (11755009_s_at) / RFU RHOB (11743442_s_at) / Fold change /veh RHOB (11743442_s_at) / RFU RGS16 (11720943_a_at) / Fold change /veh RGS16 (11720943_a_at) / RFU RGS16 (11720944_at) / Fold change /veh RGS16 (11720944_at) / RFU, VPS4B / Fold change vs veh, VPS4B / RFU, CREB1 / Fold change vs veh, CREB1 / RFU, DNAJC13 / Fold change vs veh, DNAJC13 / RFU, GNAQ / Fold change vs veh, GNAQ / RFU, CDK5R1 / Fold change vs veh, CDK5R1 / RFU, ZRANB3 / Fold change vs veh, ZRANB3 / RFU, CUL4A / Fold change vs veh, CUL4A / RFU, CCNY / Fold change vs veh, CCNY / RFU, UFL1 / Fold change vs veh, UFL1 / RFU, COG3 / Fold change vs veh, COG3 / RFU, DIAPH2 / Fold change vs veh, DIAPH2 / RFU, SKA2 / Fold change vs veh, SKA2 / RFU, AFF3 / Fold change vs veh, AFF3 / RFU, LMF1 / Fold change vs veh, LMF1 / RFU, IPO11 / Fold change vs veh, IPO11 / RFU, DFFB / Fold change vs veh, DFFB / RFU, FOXP1 / Fold change vs veh, FOXP1 / RFU, CARD8 / Fold change vs veh, CARD8 / RFU, STRN3 / Fold change vs veh, STRN3 / RFU, ADK / Fold change vs veh, ADK / RFU, RASSF2 / Fold change vs veh, RASSF2 / RFU, WIPF1 / Fold change vs veh, WIPF1 / RFU, LARP1B / Fold change vs veh, LARP1B / RFU, RASA1 / Fold change vs veh, RASA1 / RFU, RB1 / Fold change vs veh, RB1 / RFU, PPFIA1 / Fold change vs veh, PPFIA1 / RFU, MAT2A / Fold change vs veh, MAT2A / RFU, CCT5 / Fold change vs veh, CCT5 / RFU, WDR92 / Fold change vs veh, WDR92 / RFU, CUX1 / Fold change vs veh, CUX1 / RFU, TTC7A / Fold change vs veh, TTC7A / RFU, TMEM135 / Fold change vs veh, TMEM135 / RFU, DEPTOR / Fold change vs veh, DEPTOR / RFU, CPM / Fold change vs veh, CPM / RFU, DNAJB6 / Fold change vs veh, DNAJB6 / RFU, CACNA2D3 / Fold change vs veh, CACNA2D3 / RFU, DTX4 / Fold change vs veh, DTX4 / RFU, TFCP2 / Fold change vs veh, TFCP2 / RFU, GMCL1 /// GMCL1P1 / Fold change vs veh, GMCL1 /// GMCL1P1 / RFU, AEBP2 / Fold change vs veh, AEBP2 / RFU, SNHG1 /// SNORD22 /// SNORD25 /// SNORD26 /// SNORD27 /// SNORD28 /// SNORD29 /// SNORD31 / Fold change vs veh, SNHG1 /// SNORD22 /// SNORD25 /// SNORD26 /// SNORD27 /// SNORD28 /// SNORD29 /// SNORD31 / Fold change (Aza/veh), C12orf56 (ProbeSet 11735607_a_at) / Fold change (ACY-1035/veh), C12orf56 (ProbeSet 11735607_a_at) / Fold change (Aza/veh), FGFR1OP (ProbeSet 11751329_s_at) / Fold change (ACY-1035/veh), FGFR1OP (ProbeSet 11751329_s_at) / Fold change (Aza/veh), VPS36 (ProbeSet 11739960_a_at) / Fold change (ACY-1035/veh), VPS36 (ProbeSet 11739960_a_at) / RFU SYPL1 (11715823_x_at) / Fold change /veh SYPL1 (11715823_x_at) / RFU IGFBP7 (11715501_s_at) / Fold change /veh IGFBP7 (11715501_s_at) / RFU REEP3 (11722064_at) / Fold change /veh REEP3 (11722064_at) / RFU IGLL1 (11728026_x_at) / Fold change /veh IGLL1 (11728026_x_at): dose or concentration left out as unconfirmed. To be noted: ProbeSet 11734937_a_at; LIST B.

Molecules are shown by their SMILES.

With `Nc1ccc(-c2cccs2)cc1NC(=O)c1ccc2c(c1)cc(C1CC1)n2CCN1CCOCC1` [ACY-1035], the “Fold change vs veh, CNOT2” value is 0.83.

For the origin of these results see publication PMC5218480 (PLoS ONE, 2017).
